Reference: patent publication US20130035232A1, “INDUCTION AND STABILIZATION OF ENZYMATIC ACTIVITY IN MICROORGANISMS” (GEORGIA STATE UNIVERSITY RESEARCH FOUNDATION, INC., priority 2010, published 2013)

Experiments:
nitrile hydratase = experiment: Nitrile hydratase induction by inducers (Example 1); format: cell-based, Rhodococcus sp., strain DAP 96253; settings: inducer 1000 ppm
Description: The induction of nitrile hydratase activity and amidase activity in Rhodococcus sp., strain DAP 96253, was evaluated using multiple types of inducers (1000 ppm). Three different samples were cultured in YEMEA medium containing 10 ppm cobalt and 7.5 g/L urea and supplemented with acrylonitrile, asparagine, or glutamine. The specific nitrile hydratase activity and the specific amidase activity in each sample was evaluated, and the results are provided below in Table 3, with activities provided in units/mg cdw (cell dry weight). One unit of nitrile hydratase activity relates to the ability to convert 1 μmol of acrylonitrile to its corresponding amide per minute, per milligram of cells (dry weight) at a pH of 7.0 and a temperature of 30° C. One unit of amidase activity relates to the ability to convert 1 μmol of acrylamide to its corresponding acid per minute, per milligram of cells (dry weight) pH of 7.0 and a temperature of 30° C.

asparaginase I = experiment: Effect of inducer and media composition on asparaginase I production; format: cell-based, Rhodococcus sp. DAP 96253; settings: Rhodococcus sp. DAP 96253, inducer 1000 ppm
Description: Testing was performed to evaluate the effect on asparaginase I activity based upon the inducer used. In particular, testing was performed using asparagine, glutamine, succinonitrile, and isovaleronitrile as inducers (all added at 1000 ppm each).

SMILES: NC(=O)C[C@H](N)C(=O)O [Asparagine, asparagine]
- Nitrile Hydratase Activity (nitrile hydratase; Rhodococcus sp. DAP 96253, YEMEA, 10 ppm cobalt, 7.5 g/L urea): 170.50 Units/mg cdw
- nitrile hydratase induction compared with acrylonitrile (nitrile hydratase): exceeds the ability of acrylonitrile to induce such activity
- Asparaginase I levels, YEMEA - Glucose With Cobalt (asparaginase I; YEMEA - Glucose, with cobalt): 6.5 units/mg cell dry weight
- Asparaginase I levels, YEMEA - Glucose Without Cobalt (asparaginase I; YEMEA - Glucose, without cobalt): 5.3 units/mg cell dry weight
- Asparaginase I levels, YEMEA - Maltose With Cobalt (asparaginase I; YEMEA - Maltose, with cobalt): 24.6 units/mg cell dry weight
- Asparaginase I levels, YEMEA - Maltose Without Cobalt (asparaginase I; YEMEA - Maltose, without cobalt): 8.7 units/mg cell dry weight
